US5866570A, “Treatment of vascular leakage and related syndrome such as septic shock by administration of metalloproteinase inhibitors” (Wisconsin Alumni Research Foundation, priority 1994, dated 1999)

Experiments:
[1] = molecular target: T1, E. coli recombinant human 72 kD collagenase type IV (MMP-2), pAPMA activated (Homo sapiens, UniProt P08253); assay: gelatinase assay (3H-gelatin degradation), Example 9; type: biochemical; conditions: 100 ng activated enzyme, 4 hrs preincubation with inhibitor at 37° C., 3H-gelatin substrate; read-out: IC50, inhibition of collagenase type IV gelatinase activity
T1 construct: made in house; host or cells: E. coli
T1 sequence (P08253 110-660): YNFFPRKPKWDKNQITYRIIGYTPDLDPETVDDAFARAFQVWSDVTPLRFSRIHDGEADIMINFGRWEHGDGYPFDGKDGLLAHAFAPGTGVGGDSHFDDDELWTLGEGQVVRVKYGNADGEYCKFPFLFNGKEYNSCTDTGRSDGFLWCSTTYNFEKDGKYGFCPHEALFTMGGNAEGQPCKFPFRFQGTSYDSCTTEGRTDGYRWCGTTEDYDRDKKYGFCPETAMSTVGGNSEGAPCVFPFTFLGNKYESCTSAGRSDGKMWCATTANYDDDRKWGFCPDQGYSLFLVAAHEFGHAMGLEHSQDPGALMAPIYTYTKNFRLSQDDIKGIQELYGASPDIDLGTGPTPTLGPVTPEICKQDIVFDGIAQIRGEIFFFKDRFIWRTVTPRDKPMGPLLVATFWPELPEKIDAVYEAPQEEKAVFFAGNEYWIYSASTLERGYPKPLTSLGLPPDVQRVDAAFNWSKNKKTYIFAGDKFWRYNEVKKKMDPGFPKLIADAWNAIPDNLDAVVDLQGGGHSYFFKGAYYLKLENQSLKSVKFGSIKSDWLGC
From the text: Type IV collagenases are highly efficient in digesting gelatin. Inhibition of the gelatinase activity of human recombinant collagenase type IV was used as an initial assay for testing the bis(dioxopiperazine)s. The recombinant 72 kD collagenase IV used in the gelatinase assays was made in E. coli from a cDNA insert obtained from Dr. William Stetler-Stevenson (NCI). The protein runs at 72 kD on SDS-PAGE, has gelatinolytic activity in zymogram, is activated by pAPMA, is precipitated by a monoclonal anti-peptide antibody to the pro-region of the 72 kD enzyme, and is inhibited by TIMP-2. Rat tail ^3 H-collagen I (Dupont-NEN) is denatured to become gelatin by heating at 60° C. for 20 min. E. coli recombinant human 72 kD collagenase type IV is activated by incubation with 1 mM pAPMA for 1 hr. at 37° C. 100 ng of activated enzyme is added to each tube containing 50 mM Tris-HCl pH 7.5, 5 mM CaCl2 and 0.005% Brij-35 and pre-incubated with inhibitor or solvent control for 4 hrs. at 37° C. in a total of 25 μl. 10,000 cpm of ^3 H-gelatin substrate in 30 μl is added (final volume of 55 μl per sample) and the reaction mixture is incubated at 37° C. for 2 to 16 hrs. […] Enzyme activity is calculated from the radioactivity in the supernatant and activity of the compounds expressed as percent solvent control.

mouse-embryo fibroblasts = conditions: cited from earlier work

Row | SMILES | IC50 [1] | IC50, inhibition of [3H]thymidine incorporation (mouse-embryo fibroblasts)
1 | CC1(C)O[C@H]2C[C@H](N3CC(=O)NC(=O)C3)[C@@H](N3CC(=O)NC(=O)C3)C[C@@H]2O1 (relative stereo) [Compound 80, (3aα, 5β, 6α, 7aβ)-4,4'-(hexahydro-2,2-dimethyl-1,3-benzodioxole-5,6-diyl)bis(2,6-piperazinedione)] | 8 µM | –
2 | CC(CN1CC(=O)NC(=O)C1)N1CC(=O)NC(=O)C1 (centres unmarked) [razoxane] | – | 0.5 µg/mL
